According to patent publication US12180226B2, “Spirotricycle RIPK1 inhibitors and methods of uses thereof” (Merck Sharp & Dohme LLC, priority 2021, dated 2024):
Structures can show the parent of a compound that is named as a salt.

Target: RIPK1 (recombinant GST-RIPK1 kinase domain, residues 1-327) (Homo sapiens (Human), UniProt Q13546)
Experiment: RIPK1-ADP-Glo Enzymatic Assay
Type: biochemical
Conditions: ADP-Glo; 25 nM GST-RIPK1, 300 μM ATP; assay lower limit ~25 nM; read-out: RIPK1 V0 Ec50
Procedure, shortened: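 Using dephosphorylated MBP (3 μM) as substrate and 300 μM ATP, 25 nM baculovirus-produced enzyme was reacted for 150 min after a 30-min compound pre-incubation. Luminescent ADP detection followed; lower confidence limit ~25 nM.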

Sequence of RIPK1 (recombinant GST-RIPK1 kinase domain, residues 1-327) (Q13546 1-327): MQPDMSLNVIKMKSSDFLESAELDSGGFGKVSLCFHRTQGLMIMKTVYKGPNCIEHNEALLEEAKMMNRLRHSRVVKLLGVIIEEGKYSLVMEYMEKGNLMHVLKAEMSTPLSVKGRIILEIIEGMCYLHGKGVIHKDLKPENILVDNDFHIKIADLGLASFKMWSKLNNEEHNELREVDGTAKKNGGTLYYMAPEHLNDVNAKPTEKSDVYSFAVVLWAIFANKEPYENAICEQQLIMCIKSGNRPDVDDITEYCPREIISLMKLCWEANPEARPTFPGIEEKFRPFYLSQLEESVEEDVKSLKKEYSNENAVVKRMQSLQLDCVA

EC50 [nM] | SMILES
54.3 | N#Cc1ccc(N2CCC3(CC2)O[C@@H]2CC[C@@H](c4cc(F)cc(F)c4)N2C3=O)cc1-n1ccnn1 [Example 4.70, 4-[(5′S,7a′R)-5′-(3,5-difluorophenyl)-3′-oxotetrahydro-1H,3′H-spiro[piperidine-4,2′-pyrrolo[2,1-b] [1,3]oxazol]-1-yl]-2-(1H-1,2,3-triazol-1-yl)benzonitrile]
146 | O=C(c1ccnnc1)N1CCC2(CC1)O[C@@H]1CC[C@@H](c3cc(F)cc(F)c3)N1C2=O [Example 6.99, (5′S,7a′R)-5′-(3,5-difluorophenyl)-1-(pyridazine-4-carbon-yl)tetrahydro-3′H-spiro[piperidine-4,2′-pyrrolo[2,1-b][1,3]-oxazol]-3′-one]
208 | N#Cc1cscc1[C@@H]1CC[C@H]2OC3(CCN(C(=O)c4ccccc4)CC3)C(=O)N21 [Example 17.13, 4-((5′S,7a′R)-1-benzoyl-3′-oxotetrahydro-3′H-spiro[piperidine-4,2′-pyrrolo[2,1-b]oxazol]-5′-yl)thiophene-3-carbonitrile]
< 25 | O=C1N2[C@@H](CC[C@H]2c2cc(F)ccc2F)OC12CCN(c1ccnc3ccnn13)CC2 [Example 4.114, (5′S,7a′R)-5′-(2,5-difluorophenyl)-1-(pyrazolo[1,5-a]pyrimidin-7-yl)tetrahydro-3′H-spiro[piperidine-4,2′-pyrrolo[2,1-b] [1,3]oxazol]-3′-one]
< 25 | O=C(c1cccc(F)c1F)N1CCC2(CC1)O[C@@H]1CC[C@@H](c3cc(F)cc(F)c3)N1C2=O [Example 5.3, (5′S,7a′R)-1-(2,3-difluoro-benzene-1-carbonyl)-5′-(3,5-difluorophenyl)tetra-hydro3′H-spiro[piperidine-4,2′-pyrrolo[2,1-b][1,3]oxazol]-3′-one]
< 25 | O=C(c1ccc(F)cc1F)N1CCC2(CC1)O[C@@H]1CC[C@@H](c3cccc(F)c3)N1C2=O [Example 6.114, (5′S,7a′R)-1-(2,4-difluorobenzene-1-carbonyl)-5′-(3-fluoro-phenyl)tetrahydro-3′H-spiro[piperidine-4,2′-pyrrolo[2,1-b] [1,3]oxazol]-3′-one]
< 25 | O=C1N2[C@@H](CC[C@H]2c2ccccc2F)OC12CN(c1ccnc(-c3ccc(F)cc3)c1)C2 [Example 4.139, (5′S,7a′R)-5′-(2-fluorophenyl)-1-[2-(4-fluorophenyl)pyridin-4-yl]tetrahydro-3′H-spiro[azetidine-3,2′-pyrrolo[2,1-b] [1,3]oxazol]-3′-one]
< 25 | O=C1N2[C@@H](CC[C@H]2c2ccccc2)OC12CCN(c1ccnc3c(F)cnn13)CC2F (single isomer, unassigned) [Example 4.92, (3[S or R],4[R or S], 5′S,7a′R)-3-fluoro-1-(3-fluoropyrazolo[1,5-a]pyrimidin-7-yl)-5′-phenyltetrahydro-3′H-spiro[piperidine-4,2′-pyrrolo[2,1-b]oxazol]-3′-one, TFA salt]
30.5 | O=C(c1ccn2nncc2c1)N1CCC2(CC1)O[C@@H]1CC[C@@H](c3cc(F)cc(F)c3)N1C2=O [Example 6.22, (5′S,7a′R)-5′-(3,5-difluorophenyl)-1-([1,2,3]triazolo[1,5-a]pyridine-5-carbon-yl)tetrahydro-3′H-spiro[piperidine-4,2′-pyrrolo[2,1-b][1,3]oxazol]-3′-one]
101 | O=C1N2[C@@H](CC[C@H]2c2ccccc2F)OC12CN(c1cc(Cl)ncn1)C2 [Example 4.107, (5′S,7a′R)-1-(6-chloropyrimidin-4-yl)-5′-(2-fluorophenyl)tetrahydro-3′H-spiro[azetidine-3,2′-pyrrolo[2,1-b]oxazol]-3′-one]
< 25 | O=C(c1onc2ccccc12)N1CCC2(CC1)O[C@@H]1CC[C@@H](c3cc(F)cc(F)c3)N1C2=O [Example 6.50, (5′S,7a′R)-1-(2,1-benzoxazole-3-carbonyl)-5′-(3,5-difluorophenyl)tetra-hydro-3′H-spiro [piperidine-4,2′-pyrrolo[2,1-b][1,3]oxazol]-3′-one]
26.9 | Cn1ccc(C(=O)N2CCC3(CC2)O[C@@H]2CC[C@@H](c4cc(F)cc(F)c4)N2C3=O)c1 [Example 5.47, (5′S,7a′R)-5′-(3,5-difluoro-phenyl)-1-(1-methyl-1H-pyrrole-3-carbonyl)tetra-hydro-3′H-spiro[piperidine-4,2′-pyrrolo[2,1-b]oxazol]-3′-one]
26.9 | Cc1nc(Cl)c(C)c(N2CCC3(CC2)O[C@@H]2CC[C@@H](c4ccccc4)N2C3=O)n1 [Example 4.22, (5′S,7a′R)-1-(6-chloro-2,5-dimethylpyrimidin-4-yl)-5′-phenyltetrahydro-3′H-spiro[piperidine-4,2′-pyrrolo[2,1-b] [1,3]oxazol]-3′-one]
48.8 | O=C1N2[C@@H](CC[C@H]2c2ccccc2)OC12CN(c1cccc3ncnn13)C2 [Example 4.133, (5′S,7a′R)-5′-phenyl-1-([1,2,4]triazolo[1,5-a]pyridin-5-yl)tetrahydro-3′H-spiro[azetidine-3,2′-pyrrolo[2,1-b] [1,3]oxazol]-3′-one]
246 | CSc1cnc(N2CCC3(CC2)O[C@@H]2CC[C@@H](c4cc(F)cc(F)c4)N2C3=O)nc1 [Example 4.55, (5′S,7a′R)-5′-(3,5-difluorophenyl)-1-[5-(methylsulfanyl)pyrimidin-2-yl]tetrahydro-3′H-spiro[piperidine-4,2′-pyrrolo[2,1-b] [1,3]oxazol]-3′-one]
88.8 | O=C(c1ccn(C2CC2)n1)N1CCC2(CC1)O[C@@H]1CC[C@@H](c3cc(F)cc(F)c3)N1C2=O [Example 5.52, (5′S,7a′R)-1-(1-cycloprop-yl-1H-pyrazole-3-carbon-yl)-5′-(3,5-difluorophen-yl)tetrahydro-3′H-spiro [piperidine-4,2′-pyrrolo-[2,1-b]oxazol]-3′-one]
< 25 | O=C1N2[C@@H](CC[C@H]2c2ccccc2)OC12CCN(c1ccc(-c3cscn3)c3ncnn13)CC2 [Example 21.19, (5′S,7a′R)-5′-phenyl-1-[8-(1,3-thiazol-4-yl)[l,2,4]triazolo[1,5-a]pyridin-5-yl]tetrahydro-3′H-spiro[piperidine-4,2′-pyrrolo[2,1-b][1,3]oxazol]-3′-one]
151 | Cc1nc2sccn2c1C(=O)N1CCC2(CC1)O[C@@H]1CC[C@@H](c3cc(F)cc(F)c3)N1C2=O [Example 6.43, (5′S,7a′R)-5′-(3,5-difluorophenyl)-1-(6-methylimidazo[2,1-b][1,3]thiazole-5-carbonyl)tetrahydro-3′H-spiro[piperidine-4,2′-pyrrolo[2,1-b] [1,3]oxazol]-3′-one]
< 25 | N#Cc1ccc(N2CCC3(CC2)O[C@@H]2CC[C@@H](c4ccccc4)N2C3=O)n2ncc(Cl)c12 [Example 4.182, 3-chloro-7-[(5′S,7a′R)-3′-oxo-5′-phenyltetrahydro-1H,3′H-spiro[piperidine-4,2′-pyrrolo[2,1-b] [1,3]oxazol]-1-yl]pyrazolo[1,5-a] pyridine-4-carbonitrile]
< 25 | CC1C[C@@]2(CCN1C(=O)c1ccccc1)O[C@@H]1CC[C@@H](c3cccc(F)c3)N1C2=O (stereo partly drawn) [Example 6.160, (4R,5′S,7a′R)-1-(benzenecarbonyl)-5′-(3-fluorophenyl)-2-methyltetrahydro-3′H-spiro[piperidine-4,2′-pyrrolo[2,1-b] [1,3]oxazol]-3′-one]
664 | O=C1N2[C@@H](CC[C@H]2c2cc(F)cc(F)c2)OC12CCN(c1cncc3nccn13)CC2 [Example 13.8, (5′S,7a′R)-5′-(3,5-difluorophenyl)-1-(imidazo[1,2-a]pyrazin-5-yl)tetrahydro-3′H-spiro[piperidine-4,2′-pyrrolo[2,1-b]oxazol]-3′-one, TFA salt]
110 | N#Cc1ccc(N2CCC3(CC2)O[C@@H]2CC[C@@H](c4ccccc4)N2C3=O)n2ncc(-c3ncco3)c12 [Example 4.181, 3-(1,3-oxazol-2-yl)-7-[(5′S,7a′R)-3′-oxo-5′-phenyltetrahydro-1H,3′H-spiro[piperidine-4,2′-pyrrolo[2,1-b] [1,3]oxazol]-1-yl]pyrazolo[1,5-a] pyridine-4-carbonitrile]
< 25 | Cc1ccc(C(=O)N2CCC3(CC2)O[C@@H]2CC[C@@H](c4cc(F)cc(F)c4)N2C3=O)s1 [Example 5.34, (5′S,7a′R)-5′-(3,5-difluoro-phenyl)-1-(5-methylthio-phene-2-carbonyl)tetra-hydro-3′H-spiro[piperidine-4,2′-pyrrolo[2,1-b]oxazol]-3′-one]
60.1 | Cc1cnc(C(=O)N2CCC3(CC2)O[C@@H]2CC[C@@H](c4cc(F)cc(F)c4)N2C3=O)cn1 [Example 6.3, (5′S,7a′R)-5′-(3,5-difluorophenyl)-1-(5-methylpyrazine-2-carbonyl)tetrahydro-3′H-spiro[piperidine-4,2′-pyrrolo[2,1-b] [1,3]oxazol]-3′-one]
170 | C#Cc1ccc(C(=O)N2CCC3(CC2)O[C@@H]2CC[C@@H](c4cc(F)cc(F)c4)N2C3=O)cc1 [Example 5.27, (5′S,7a′R)-5′-(3,5-difluoro-phenyl)-1-(4-ethynyl-benzoyl)tetrahydro-3′H-spiro[piperidine-4,2′-pyrrolo[2,1-b]oxazol]-3′-one]
< 25 | O=C1N2[C@H](CC[C@H]2c2cccc(F)c2)OC12CCN(c1ccnc3c(F)cnn13)CC2 [Example 4.15, (5′S,7a′S)-5′-(3-fluorophenyl)-1-(3-fluoropyrazolo[1,5-a]pyrimidin-7-yl)tetrahydro-3′H-spiro[piperidine-4,2′-pyrrolo[2,1-b] [1,3]oxazol]-3′-one]
< 25 | O=C1N2C(CCC2c2cc(F)cc(F)c2)OC12CCN(c1cc(F)ccn1)CC2 (stereo not drawn) [Example 4.3, 5′-(3,5-difluorophenyl)-1-(4-fluoropyridin-2-yl)tetrahydro-3′H-spiro[piperidine-4,2′-pyrrolo[2,1-b] [1,3]oxazol]-3′-one]
